Legend:
[1] = tested on: transformed NIH3T3 cells expressing ras and ATX; parameters: method as in PMID 18454946; conditions: cited from earlier work
LPA1 = conditions: Ca++ mobilization, RH7777 cells; kind of constant not given; read-out: inhibition of LPA1; cited from earlier work
plasma LPA levels = test: In vivo plasma LPA and LPC levels (HPLC-MS/MS); parameters: species or system mouse; conditions: 10 mg/kg i.p.
Experimental: BrP-LPA, LPA species (C14:0, C16:0, C18:0, C18:1 and C20:4) and LPC species (C14:0, C16:0, C18:0, C18:1 and C20:0) were measured in plasma with HPLC-ESI/MS/MS using RSLCnano system (Ultimate 3000) coupled in-line with an LTQ Orbitrap XL mass spectrometer (Thermo Scientific, Waltham, MA, USA). BrP-LPA and lipid (LPA, LPC) extraction from plasma was performed on ice according to the Folch method with minor modifications. Plasma samples (50 ul) were mixed with 950 ul PBS prior to extraction and spiked with the internal standard mix (17:1 LPA/LPC). Samples were extracted under neutral conditions with 4 ml of ice-cold CHCl3/CH3OH (2/1, v/v) followed by 2 ml of PBS-saturated ice-cold CHCl3/CH3OH (2/1, v/v). Each extraction step was followed by a 60 s vortex and a 1 min centrifugation step in a bench-top clinical centrifuge in a cold room at 4°C at 3,000 rpm. The lower chloroform organic phases from both neutral extraction steps were pooled and kept for LPC measurement. The remained aqueous phase was chilled on ice for 10 min and extracted twice with ice-cold acidified with acetic acid CHCl3/CH3OH (2/1, v/v) as above. The lower organic phases were pooled, neutralized to pH 6–7 (checked with pH paper as above) on ice and kept for LPA, BrP-LPA measurements. The kept neutral lower organic phase of neutral extraction and the neutralized acidified lower organic phase were evaporated to dryness. The resulting residues were resuspended in 0.15 ml of isopropanol and after brief vortex mixing the solution was transferred to the auto sampler vial. Recovery of LPA species was between 60% and 95%. Recovery of BrP-LPA was 70% and the recovery of LPC species was between 80% and 100%. The Relative Standard Deviation (RSD) was less than 7% from the plasma fortified with three different concentrations (0.1, 0.5 and 1 μΜ) of LPAs, (0.1, 1 and 10 μΜ) of BrP-LPA and (0.5, 5 and 50 μΜ) of LPCs. Analysis was performed using a Phenomenex (Phenomenex, Torrance, CA, USA) Luna Silica column (2–250 mm, 5 μm particle size) using a binary gradient program consisting of isopropanol:hexane:100 mM NH4CO2H(aq) 58:40:2 (mobile phase A) and isopropanol:hexane:100 mM NH4CO2H(aq) 50:40:10 (mobile phase B). The mobile phase was delivered at a flow rate of 0.3 ml/min and the total run time was 50 min/sample. […] The precursor ion mass was used for the quantification while lipid identity was confirmed by precursor ion fragmentation using collision induced dissociation (CID). […]
BrP-LPA was administered intraperitoneally (IP) at 10 mg/kg in water to 6–8 week old female mice. […] Plasma samples were then analysed for plasma ATX activity and BrP-LPA/LPA/LPC levels with the TOOS activity assay and HPLC-MS/MS respectively. […]

[2] = tested on: peri-tumor tissue fibroblasts, hepatocellular carcinoma cells; parameters: method as in PMID 21674557; conditions: cited from earlier work
liver tumor = tested on: liver tumor; parameters: method as in earlier work; conditions: in vivo; cited from earlier work
[3] = tested on: non-small cell lung cancer xenograft; parameters: method as in PMID 20143443; conditions: three-dimensional non-small cell lung cancer xenograft; cited from earlier work
[4] = tested on: collagen induced arthritis (CIA); test: Collagen induced arthritis (CIA) in DBA/1 mice; format: in vivo, mouse
Experimental: CIA in DBA/1 mice was induced by immunization with collagen type II emulsified in complete Freund's adjuvant essentially as previously described, [43]. Mice were assessed for disease clinical signs two to three times per week. Clinical signs of arthritis were determined using the following scoring system: 0: no evidence of erythema and swelling; 1: erythema and mild swelling confined to the […] or ankle joint; 2: erythema and mild swelling extending from the ankle to the […]; 3: erythema and moderate swelling extending from the ankle to metatarsal joints; 4: erythema and severe swelling encompassing the ankle, foot and digits, or ankylosis of the limb.
Paraffin-embedded joint tissue samples were sectioned and stained with hematoxylin and eosin as previously described, [44]. Arthritic histopathology in mice was assessed (in a blinded fashion from 3 independent examiners) using a semi-quantitative scoring system as previously described for CIA in a DBA/1 (H-2^q) background. 0: no detectable pathology; 1: hyperplasia of the synovial membrane and presence of polymorphonuclear infiltrates – mild tendonitis may be present; 2: pannus and fibrous tissue formation and focal subchondrial bone erosion: 3: cartilage destruction and bone erosion in multiple foci; 4: extensive cartilage destruction and bone erosion- bone outline structure lost. Presented results refer to an average score of all four joints.
To examine the therapeutic potential of targeting the ATX/LPA axis in RA, BrP-LPA was injected intraperitoneally twice a week (following immunization boost; Fig. 4A), in groups of mice undergoing the development of collagen induced arthritis (CIA).
A. Schematic representation of immunization and drug administration schemes. DBA/1 mice subjected to CIA were treated intraperitoneally with vehicle, BrP-LPA (10 mg/kg), or dexamethasone (Dex, 3 mg/kg) twice a week. B–C. […] Data are pooled from two different experiments (n = 10). […] Joint sections were assessed histologically in a blinded manner by three independent examiners. Data are shown as mean joint values per mouse ± SD. […] Levels of CII-specific Abs were determined by ELISA in mouse sera.

[5] = 10 mg/kg i.p. twice a week, DBA/1 mice

SMILES: CCCCCCCCCCCCCCCC(=O)OC[C@@H](O)CC(Br)P(=O)(O)O (stereo partly drawn) [BrP-LPA, 1-bromo-3(S)-hydroxy-4-(palmitoyloxy)butyl-phosphonate]
- inhibition of invasiveness [1]: 40%
- IC50 (LPA1): 1500 nM
- plasma LPC levels (plasma LPA levels): remain unchanged
- production of LPA species in plasma (plasma LPA levels): inhibited the production of all LPA species tested except from 14:0 LPA
- reduction of total plasma LPA levels (plasma LPA levels; 1 hour post administration): 82%
- LPA levels, % of normal initial levels (plasma LPA levels; sixteen hours post administration): 60–70%
- trans-differentiation of peri-tumor fibroblasts and HCC cell proliferation, migration, invasion [2]: block the trans-differentiation of peri-tumor tissue fibroblasts and the associated proliferation, migration and invasion of hepatocellular carcinoma cells
- liver tumor weight and volume (liver tumor): reduce liver tumor weight and volume in vivo
- tumor growth and angiogenesis [3]: inhibit tumor growth and angiogenesis
- development of arthritis (number of arthritic limbs per mouse) [4, 5]: development of arthritis in significantly fewer mice
- severity per arthritic limb [4, 5]: reduced severity per arthritic limb
- histopathological analysis of the joints ([4]; 10 mg/kg i.p. twice a week, H&E): marked decreased inflammation and synovial hyperplasia
- gross physiology / systemic side effects ([4]; 10 mg/kg i.p. twice a week, data not shown): no appreciable alternation of gross physiology
- levels of anti-collagen antibodies ([4]; ELISA in mouse sera): did not interfere with the levels of anti-collagen antibodies
- BrP-LPA levels in joint tissue versus liver tissue and plasma ([4]; data not shown): persist for longer in joint tissue
- LPA (or LPC) levels in plasma or joint tissue at end of monitoring ([4]; three days after the last injection, data not shown): no changes in LPA (or LPC) levels were detected

From publication PMC3726599, “A Metabolically-Stabilized Phosphonate Analog of Lysophosphatidic Acid Attenuates Collagen-Induced Arthritis” (PLoS ONE, 2013)
